The record followed here is US8822517B2, “Arylosulfonamides for the treatment of CNS diseases” (Adamed SP. Z O.O., priority 2010, dated 2014).

SMILES strings stand for the structures.

The target in one assay is T1, adrenergic α1A receptor (Homo sapiens, UniProt P35348).
T1 sequence (P35348 1-466): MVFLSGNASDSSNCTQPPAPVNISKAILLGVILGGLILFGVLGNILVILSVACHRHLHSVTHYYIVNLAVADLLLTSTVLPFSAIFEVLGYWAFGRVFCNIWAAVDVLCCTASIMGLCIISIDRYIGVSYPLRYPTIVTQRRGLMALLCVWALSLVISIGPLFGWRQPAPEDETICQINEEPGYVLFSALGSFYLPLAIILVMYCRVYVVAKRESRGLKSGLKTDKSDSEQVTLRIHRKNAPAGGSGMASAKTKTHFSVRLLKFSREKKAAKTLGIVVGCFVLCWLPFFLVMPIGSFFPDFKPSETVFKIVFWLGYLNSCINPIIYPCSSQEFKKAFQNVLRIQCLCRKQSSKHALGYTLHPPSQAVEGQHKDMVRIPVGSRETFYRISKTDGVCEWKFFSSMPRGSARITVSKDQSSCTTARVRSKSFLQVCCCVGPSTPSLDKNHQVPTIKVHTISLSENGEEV
As to the kind of experiment: Cellular functional assay, adrenergic α1A receptor (agonism/antagonism). The format is cell-based. Particulars: for activation at 1 µM: agonist effect, percent of control specific agonist response, compounds tested at 1×10^−6M, read-out: α1A -ag [%]; for inhibition at 1 µM: read-out: α1A -antag. [%]. The method in brief:
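Human receptors tested in cell-based functional format for both agonist and antagonist modes. Single compound concentration of 1×10^−6M.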

Assay [1] addresses T2, serotoninergic 5-HT1A receptor (Homo sapiens, UniProt P08908).
T2 sequence (P08908 1-422): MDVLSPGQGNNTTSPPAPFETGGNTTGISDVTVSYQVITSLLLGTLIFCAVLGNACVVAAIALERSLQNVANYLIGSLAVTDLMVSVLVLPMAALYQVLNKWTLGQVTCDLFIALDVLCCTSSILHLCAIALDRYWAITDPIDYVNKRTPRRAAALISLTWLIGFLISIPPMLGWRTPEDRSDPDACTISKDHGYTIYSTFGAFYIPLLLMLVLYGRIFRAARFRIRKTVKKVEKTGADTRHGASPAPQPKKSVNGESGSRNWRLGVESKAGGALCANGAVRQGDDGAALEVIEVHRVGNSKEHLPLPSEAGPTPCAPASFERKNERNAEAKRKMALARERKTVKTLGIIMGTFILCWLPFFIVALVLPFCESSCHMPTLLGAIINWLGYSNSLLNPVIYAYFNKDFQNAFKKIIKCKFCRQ
The experiment in a line: Cellular functional assay, serotoninergic 5-HT1A receptor (agonism/antagonism). The format is cell-based. As to conditions: for inhibition at 1 µM: CHO, read-out: 5-HT1A-antag. [%]; for activation at 1 µM: agonist effect, percent of control specific agonist response (100 nM 8-OH-DPAT for control), 1×10^−6 M, 5-HT1A (h), CHO cells, read-out: 5-HT1A-ag [%]. The protocol:
(§1) The compounds were tested at the concentration of 1×10^−6M.
(§2) In the Tables ag refers to agonism, and antag to antagonism).

The target of assay [2] is T3, serotoninergic 5-HT6 receptor (Homo sapiens, UniProt P50406). The experiment in a line: Cellular functional assay, serotoninergic 5-HT6 receptor (agonism/antagonism). As to conditions: for activation at 1 µM: agonist effect, percent of control specific agonist response, compounds tested at 1×10^−6M, read-out: 5-HT6-ag [%]; for inhibition at 1 µM: read-out: 5-HT6-antag. [%]. It counts as cell-based. The protocol: as §1, §2

For a further assay, the target named is T4, adrenergic α2C receptor (Homo sapiens, UniProt P18825).
T4 sequence (P18825 1-462): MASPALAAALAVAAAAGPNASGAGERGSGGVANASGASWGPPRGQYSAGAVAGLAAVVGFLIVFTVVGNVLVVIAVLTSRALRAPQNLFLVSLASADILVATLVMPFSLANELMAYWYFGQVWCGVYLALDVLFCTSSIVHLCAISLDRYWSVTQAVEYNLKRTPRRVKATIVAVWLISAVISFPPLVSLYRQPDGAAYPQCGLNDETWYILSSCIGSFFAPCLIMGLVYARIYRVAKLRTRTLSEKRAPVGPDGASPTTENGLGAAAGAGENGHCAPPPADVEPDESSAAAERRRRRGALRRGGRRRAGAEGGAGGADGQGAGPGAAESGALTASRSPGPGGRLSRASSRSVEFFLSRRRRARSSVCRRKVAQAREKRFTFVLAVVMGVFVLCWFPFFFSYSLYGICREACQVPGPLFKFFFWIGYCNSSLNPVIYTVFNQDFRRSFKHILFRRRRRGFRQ
As to the kind of experiment: Cellular functional assay, adrenergic α2C receptor (agonism/antagonism). As to conditions: for activation at 1 µM: agonist effect, percent of control specific agonist response, compounds tested at 1×10^−6M, read-out: α2C −ag [%]; for inhibition at 1 µM: read-out: α2C −antag. [%]. It counts as cell-based. The protocol: as §1, §2

In assay [3] the target is histaminergic H1 receptor (Homo sapiens, UniProt P35367). The experiment in a line: Binding assay H1 (h), [3H]pyrilamine, HEK-293 cells. Also noted: expressed in transfected cells; host or cells: HEK-293 cells. As to conditions: read-out: H1 [%]. An outline of the steps: (§3)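 Total binding and binding under an excess of unlabelled competitor were both measured, the difference giving specific binding. Counts came from scintillation detection, and compound concentration was 1×10^−6 M.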

Assay [4] deals with T3, serotoninergic 5-HT6 receptor. The experiment in a line: Binding assay 5-HT6 (h), [3H]LSD, CHO cells. Particulars: read-out: 5-HT6. Also noted: expressed in transfected cells; host or cells: CHO cells. The method in brief: as §3
In assay [5] the target is T5, serotonine transporter (SERT) receptor (Homo sapiens, UniProt P31645).
T5 construct: expressed in transfected cells; host or cells: CHO cells
As to the kind of experiment: Binding assay SERT (h), [3H]imipramine, CHO cells. As to conditions: read-out: SERT [%]. The method in brief:
as §3

Another assay deals with dopaminergic D2 receptor (Homo sapiens, UniProt P14416). The experiment in a line: Binding assay D2S (h), [3H]methyl-spiperone, HEK-293 cells. As to conditions: read-out: D2 [%]. More on the design: expressed in transfected cells; host or cells: HEK-293 cells. An outline of the steps:
as §3

A further assay deals with dopaminergic D3 receptor (Homo sapiens, UniProt P35462). As to the kind of experiment: Cellular functional assay, dopaminergic D3 receptor (agonism/antagonism). As to conditions: for inhibition at 1 µM: CHO, read-out: D3-antag. [%]; for activation at 1 µM: agonist effect, percent of control specific agonist response (300 nM dopamine for control), 1×10^−6 M, D3 (h), CHO cells, read-out: D3-ag [%]. It counts as cell-based. The protocol:
as §1, §2

The target in assay [6] is serotoninergic 5-HT7 receptor (Homo sapiens, UniProt P34969). The experiment in a line: Binding assay 5-HT7 (h), [3H]LSD, CHO cells. Also noted: expressed in transfected cells; host or cells: CHO cells. Particulars: read-out: 5-HT7. The method in brief:
as §3

Another assay has as its target T6, muscarinic M3 receptor (Homo sapiens, UniProt P20309).
T6 construct: expressed in transfected cells; host or cells: CHO cells
As to the kind of experiment: Binding assay M3 (h), [3H]4-DAMP, CHO cells. As to conditions: read-out: M3 [%]. The method in brief:
as §3

T3 sequence (P50406 whole entry): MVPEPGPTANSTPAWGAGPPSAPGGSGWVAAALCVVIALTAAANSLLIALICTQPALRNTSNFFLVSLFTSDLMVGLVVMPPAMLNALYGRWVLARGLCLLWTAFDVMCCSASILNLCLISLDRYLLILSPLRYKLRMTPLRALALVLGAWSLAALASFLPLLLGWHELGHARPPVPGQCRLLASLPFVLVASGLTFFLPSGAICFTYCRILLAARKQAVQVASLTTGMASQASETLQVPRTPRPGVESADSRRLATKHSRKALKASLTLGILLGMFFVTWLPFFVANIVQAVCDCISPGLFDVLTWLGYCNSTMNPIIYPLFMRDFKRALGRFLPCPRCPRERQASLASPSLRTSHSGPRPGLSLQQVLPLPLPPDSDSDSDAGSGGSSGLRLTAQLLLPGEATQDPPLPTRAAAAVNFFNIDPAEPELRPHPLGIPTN
T6 sequence (P20309 whole entry): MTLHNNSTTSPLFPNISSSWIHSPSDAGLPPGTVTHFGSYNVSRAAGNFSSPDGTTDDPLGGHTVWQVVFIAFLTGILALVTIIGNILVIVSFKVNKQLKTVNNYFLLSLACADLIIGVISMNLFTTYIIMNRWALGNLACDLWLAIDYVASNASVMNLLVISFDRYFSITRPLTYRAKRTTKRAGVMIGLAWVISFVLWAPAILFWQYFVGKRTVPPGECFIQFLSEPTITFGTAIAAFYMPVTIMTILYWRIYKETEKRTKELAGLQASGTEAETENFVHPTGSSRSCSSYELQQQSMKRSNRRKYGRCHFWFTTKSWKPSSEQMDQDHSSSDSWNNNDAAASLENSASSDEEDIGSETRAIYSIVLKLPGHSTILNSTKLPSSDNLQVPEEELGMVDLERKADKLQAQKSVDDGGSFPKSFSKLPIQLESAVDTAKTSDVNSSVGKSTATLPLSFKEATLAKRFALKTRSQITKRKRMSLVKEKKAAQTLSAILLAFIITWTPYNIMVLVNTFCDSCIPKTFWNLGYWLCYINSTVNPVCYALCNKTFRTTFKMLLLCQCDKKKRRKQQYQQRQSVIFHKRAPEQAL
serotoninergic 5-HT7 receptor, sequence (P34969 whole entry): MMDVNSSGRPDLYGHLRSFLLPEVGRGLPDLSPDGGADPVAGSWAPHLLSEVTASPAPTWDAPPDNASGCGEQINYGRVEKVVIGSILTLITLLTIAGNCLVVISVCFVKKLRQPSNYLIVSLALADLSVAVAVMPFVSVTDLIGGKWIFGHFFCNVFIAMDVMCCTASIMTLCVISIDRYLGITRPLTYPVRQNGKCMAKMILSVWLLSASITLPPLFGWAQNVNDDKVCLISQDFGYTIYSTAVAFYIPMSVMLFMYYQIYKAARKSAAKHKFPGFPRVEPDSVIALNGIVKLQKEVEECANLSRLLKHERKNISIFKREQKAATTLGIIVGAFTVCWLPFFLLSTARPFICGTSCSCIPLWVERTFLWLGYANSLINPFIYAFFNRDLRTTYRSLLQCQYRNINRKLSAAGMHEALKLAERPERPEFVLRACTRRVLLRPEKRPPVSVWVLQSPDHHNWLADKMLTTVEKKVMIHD
T5 sequence (P31645 whole entry): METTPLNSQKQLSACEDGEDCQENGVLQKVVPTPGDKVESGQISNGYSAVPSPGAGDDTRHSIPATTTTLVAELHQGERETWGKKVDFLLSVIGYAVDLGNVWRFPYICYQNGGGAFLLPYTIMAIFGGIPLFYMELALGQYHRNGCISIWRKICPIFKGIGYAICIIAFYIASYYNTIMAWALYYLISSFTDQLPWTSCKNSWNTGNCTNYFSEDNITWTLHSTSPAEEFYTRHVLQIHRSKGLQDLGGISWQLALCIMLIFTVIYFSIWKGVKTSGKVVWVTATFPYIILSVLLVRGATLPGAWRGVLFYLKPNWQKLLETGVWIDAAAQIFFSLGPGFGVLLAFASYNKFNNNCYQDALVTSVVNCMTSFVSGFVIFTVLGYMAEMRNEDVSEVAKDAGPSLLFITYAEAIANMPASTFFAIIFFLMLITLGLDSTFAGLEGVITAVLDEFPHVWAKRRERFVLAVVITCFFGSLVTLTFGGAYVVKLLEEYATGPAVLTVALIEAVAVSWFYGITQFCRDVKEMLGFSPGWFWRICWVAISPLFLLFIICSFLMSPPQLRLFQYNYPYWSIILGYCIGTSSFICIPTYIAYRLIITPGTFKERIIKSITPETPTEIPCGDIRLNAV
histaminergic H1 receptor, sequence (P35367 whole entry): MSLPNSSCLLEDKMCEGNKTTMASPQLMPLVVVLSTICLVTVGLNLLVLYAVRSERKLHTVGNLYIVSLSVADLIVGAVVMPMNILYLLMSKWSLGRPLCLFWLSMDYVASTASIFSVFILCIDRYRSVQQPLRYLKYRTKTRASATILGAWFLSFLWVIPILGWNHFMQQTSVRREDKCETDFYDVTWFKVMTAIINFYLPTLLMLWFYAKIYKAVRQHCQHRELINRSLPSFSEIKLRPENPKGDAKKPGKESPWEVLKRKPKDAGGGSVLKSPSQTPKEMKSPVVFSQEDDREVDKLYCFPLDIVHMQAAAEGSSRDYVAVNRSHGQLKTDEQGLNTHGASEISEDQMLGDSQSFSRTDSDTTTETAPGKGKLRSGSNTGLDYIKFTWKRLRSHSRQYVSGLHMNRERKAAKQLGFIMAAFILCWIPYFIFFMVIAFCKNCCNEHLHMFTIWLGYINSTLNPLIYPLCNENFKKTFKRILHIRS
dopaminergic D2 receptor, sequence (P14416 1-414 isoform P14416-2): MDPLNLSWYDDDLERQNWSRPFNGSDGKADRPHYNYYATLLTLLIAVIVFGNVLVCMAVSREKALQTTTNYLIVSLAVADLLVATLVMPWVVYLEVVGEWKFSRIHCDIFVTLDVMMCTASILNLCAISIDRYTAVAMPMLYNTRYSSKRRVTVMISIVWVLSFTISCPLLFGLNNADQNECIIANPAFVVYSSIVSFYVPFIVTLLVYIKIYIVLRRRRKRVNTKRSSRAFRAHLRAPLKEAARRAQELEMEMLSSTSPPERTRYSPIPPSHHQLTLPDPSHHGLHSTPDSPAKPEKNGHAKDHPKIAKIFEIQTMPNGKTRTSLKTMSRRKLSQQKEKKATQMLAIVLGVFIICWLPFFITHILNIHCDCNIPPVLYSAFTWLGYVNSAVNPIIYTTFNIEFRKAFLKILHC
dopaminergic D3 receptor, sequence (P35462 whole entry): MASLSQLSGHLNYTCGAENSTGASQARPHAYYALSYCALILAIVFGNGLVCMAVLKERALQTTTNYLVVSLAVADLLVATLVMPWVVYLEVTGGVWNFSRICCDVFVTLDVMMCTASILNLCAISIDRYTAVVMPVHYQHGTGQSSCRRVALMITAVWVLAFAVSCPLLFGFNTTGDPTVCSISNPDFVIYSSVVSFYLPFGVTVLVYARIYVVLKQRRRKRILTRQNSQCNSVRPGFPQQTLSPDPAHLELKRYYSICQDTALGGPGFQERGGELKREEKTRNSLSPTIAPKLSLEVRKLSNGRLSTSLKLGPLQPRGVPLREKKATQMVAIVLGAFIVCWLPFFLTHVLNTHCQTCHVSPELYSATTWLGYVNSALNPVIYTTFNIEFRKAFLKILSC

With `O=S(=O)(NCCCCN1CCN(c2nsc3ccccc23)CC1)c1cc2ccc(Cl)cc2s1` [Compound 241, N-[4-[4-(1,2-Benzothiazol-3-yl)piperazin-1-yl]butyl]-6-chlorobenzothiophene-2-sulphonamide], the activation at 1 µM is 0% at adrenergic α1A receptor; 5% in [1]; 0% in assay [2]; -1% at adrenergic α2C receptor; 7% at dopaminergic D3 receptor. For the same compound, the inhibition at 1 µM at adrenergic α1A receptor was 95%; in assay [1], 42%; in assay [2] it was 69%; on adrenergic α2C receptor it was 14%; in assay [3], 97%; in assay [4], 96%. The inhibition at 1 µM in assay [5] was 50%; on dopaminergic D2 receptor it was 100%; at dopaminergic D3 receptor it was 78%; in assay [6] it was 99%; on muscarinic M3 receptor, 4%.

`Cc1c(S(=O)(=O)NCCCN2CCC(c3noc4cc(F)ccc34)CC2)sc2ccc(F)cc12` [Compound 102, 5-Fluoro-N-[3-[4-(6-fluoro-1,2-benzoxazol-3-yl)piperidin-1-yl]propyl]-3-methylbenzothiophene-2-sulphonamide]: the activation at 1 µM was 0% on adrenergic α1A receptor; 1% in [1]; -1% in assay [2]; -7% at adrenergic α2C receptor; 4% on dopaminergic D3 receptor. The inhibition at 1 µM at adrenergic α1A receptor is 100%; in assay [1], 35%; in assay [2] it was 82%; on adrenergic α2C receptor, 14%; in assay [3], 94%; in assay [4], 97%. The inhibition at 1 µM in assay [5] was 38%; on dopaminergic D2 receptor it was 100%; on dopaminergic D3 receptor, 83%; in assay [6], 97%; on muscarinic M3 receptor it was 18%.

On to `Cc1cccc(S(=O)(=O)NCCCN2CCC(c3noc4cc(F)ccc34)CC2)c1` [Compound 22, N-[3-[4-(6-Fluoro-1,2-benzoxazol-3-yl)piperidin-1-yl]propyl]-3-methylbenzenesulphonamide], for which the activation at 1 µM at adrenergic α1A receptor is 0%; in assay [1], 0%; in assay [2] it was 1%; at adrenergic α2C receptor, -8%; on dopaminergic D3 receptor, -25%. The inhibition at 1 µM on adrenergic α1A receptor was 100%; in assay [1], 99%; in [2], 82%; at adrenergic α2C receptor, 12%; in assay [3], 88%; in assay [4] it was 99%. Also, the inhibition at 1 µM in assay [5] worked out at 44%; on dopaminergic D2 receptor, 96%; on dopaminergic D3 receptor, 81%; in assay [6] it was 99%; at muscarinic M3 receptor it was 12%.

Regarding `O=S(=O)(NCCCCN1CCN(c2nsc3ccccc23)CC1)c1cc2ccccc2s1` [Compound 239, N-[4-[4-(1,2-Benzothiazol-3-yl)piperazin-1-yl]butyl]benzothiophene-2-sulphonamide], the activation at 1 µM was -1% at adrenergic α1A receptor; 7% in [1]; 0% in assay [2]; 3% on adrenergic α2C receptor; 6% on dopaminergic D3 receptor. Also, the inhibition at 1 µM at adrenergic α1A receptor amounted to 100%; in assay [1], 58%; in [2], 70%; at adrenergic α2C receptor, 33%; in assay [3], 98%; in [4] it was 96%. For the same compound, the inhibition at 1 µM was 64% in [5]; 102% on dopaminergic D2 receptor; 84% at dopaminergic D3 receptor; 98% in [6]; 9% at muscarinic M3 receptor.
